Results on 2 compounds are retold here after article PMC3584063, “Biochemical and Functional Studies on the Burkholderia cepacia Complex bceN Gene, Encoding a GDP-D-Mannose 4,6-Dehydratase” (PLoS ONE, 2013).

The target in assay [1] is T1, BceN (GDP-D-mannose 4,6-dehydratase) (Burkholderia cenocepacia, UniProt B4EFL2).
T1 construct: gene gca; full-length, C-terminally 6×His-tagged BceN, tetramer
The assay is described as follows: 1H NMR enzyme kinetics with purified protein (substrate turnover and substrate inhibition), […]°C, pH […]. In kind it is biochemical.

Assay [2] addresses 6×His-tagged BceN protein of Burkholderia cenocepacia J2315 (GDP-D-mannose 4,6-dehydratase) (Burkholderia cenocepacia J2315). The experiment in a line: native gel or EMSA; discontinuous native PAGE, 8% polyacrylamide, 200 mM Tris-Cl pH 8.8, 4°C, 100 V, 2 h; 6 µg purified 6×His-tagged BceN; aliquot with GMD activity; mass standards catalase, aldolase, BSA, ovalbumin. On the technique in general: Mobility shift assays separate free from complexed probe on a gel.

Compound `Nc1nc2c(ncn2[C@@H]2O[C@H](COP(=O)(O)OP(=O)(O)O[C@H]3O[C@H](CO)[C@@H](O)[C@H](O)[C@@H]3O)[C@@H](O)[C@H]2O)c(=O)[nH]1` [A, GDP-D-mannose] registered a Ki in assay [1] of 2.91 ± 0.35 mM.
In general, stoichiometry N refers to the number of molecules, sites or subunits per partner or assembly. In assay [2], “6×His-tagged BceN protein of Burkholderia cenocepacia J2315 (GDP-D-mannose 4,6-dehydratase) (enzyme)” gave a stoichiometry N of 4.
